Values quoted from earlier work in patent US20100216762A1, “Agonists and Antagonists of the S1P5 Receptor, and Methods of Use Thereof” (ABBOTT LABORATORIES, priority 2009, published 2010).

How the values were obtained:
[1] = spared-nerve injury model of neuropathic pain

CCCCCCCCc1ccc(CCC(N)(CO)CO)cc1 [FTY720]
nociception in the formalin model: anti-nociceptive | Aβ-induced migration of monocytes to sites of injury (monocytes): inhibits that migration | nociceptive behavior in the spared-nerve injury model [1]: reduced nociceptive behavior

FC(F)(F)c1cccc(-c2noc(-c3cc(-c4ccccc4)c(C(F)(F)F)s3)n2)c1 [SEW2871]
nociception in the formalin model: lack of activity
